Laboratory results reported in patent US9315522B2, “Antibacterial compounds” (JANSSEN SCIENCES IRELAND UC, priority 2012, dated 2016).

Biological target: T1, S. aureus ATCC 29213 FabI (Staphylococcus aureus, UniProt Q6GI75)
T1 sequence (Q6GI75 1-256): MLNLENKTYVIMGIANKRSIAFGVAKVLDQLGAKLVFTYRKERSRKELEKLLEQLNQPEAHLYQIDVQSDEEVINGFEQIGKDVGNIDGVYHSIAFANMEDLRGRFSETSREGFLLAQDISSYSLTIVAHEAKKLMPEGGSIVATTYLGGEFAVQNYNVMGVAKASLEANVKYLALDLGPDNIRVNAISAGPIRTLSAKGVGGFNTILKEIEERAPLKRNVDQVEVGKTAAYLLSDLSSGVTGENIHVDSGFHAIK
Experiment: Staphylococcus aureus FabI enzyme inhibition assay
Type: biochemical
Settings: read-out: FabI (300.235) IC50 (converted)
Procedure, shortened: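 S. aureus ATCC 29213 FabI (50 μg/ml) with 250 μM crotonoyl-CoA and 625 μM NADH in 100 mM NaADA pH 6.5, inhibitor 50–0.39 μM, 30 min at room temperature. Stopped by Tris pH 9.0 shift; NADH at 340 nm versus no-compound and no-enzyme controls; IC50 in μg/ml.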

Question: O=C1CNCc2cc(/C=C/C(=O)N3CC4C=C(c5nccs5)CC4C3)cnc2N1 (stereo not shown) [compound 48] was tested. Which IC50 did it give?
Answer: ~663 nM
